Source: patent US7781565B2 (priority 2006, dated 2010)
“Also recorded” adds a separate entry of the source.

system: NCI-60 cell lines; type: cell-based, human

Substance	Cell Line with which the peptide (and its tripeptide motif) is associated	Cell Line (NCI-60 cell line the peptide is associated with)	Cell Line (NCI-60 cell line the peptide and its motif are associated with)	Cell Line the peptide is associated with (peptide recovered from phage library selection on this NCI-60 cell line)
GAVVKPI	A549-Lung			
GPSWATV		LOX-IMVI Melanoma		
WGLVRHA		SF-268 CNS		
VTDGAGQ		SF-268 CNS		
REVPGLR		SNB-19 CNS; also recorded: SF-539 CNS		
ALAGGGL		SNB-75 CNS		
WVSGRLG		COLO-205-Colon		
RVEAAVP			SK-OV-3-3 Ovarian	
PEGGRRP				SN12C Renal
SRFGPSV	H322-Lung			
YRGSMVG		COLO-205-Colon		
RGVGKTK				MDA-MB-231 Breast
ASYAGLV			IGROV1 Ovarian	
GAVDGSR	RPMI-8226-Leukemia			
TGRLSAA			UACC62 Melanoma	
DWRRRAV		HCT-15 Colon		
ARLLRGG			DU-145 Prostate	
GRGSGGF		LOX-IMVI Melanoma		
RGRLALL			M14 Melanoma	
GSGVRVS			SK-MEL-28 Melanoma	
RPKLRSV		MALME-3M Melanoma		
SRGSTAG	H322-Lung			
TLTAAVF			UACC 257 Melanoma	

Substance	Cell Line with which the peptide (and its tripeptide motif) is associated	Cell Line (NCI-60 cell line the peptide is associated with)	Cell Line (NCI-60 cell line the peptide and its motif are associated with)	Cell Line the peptide is associated with (peptide recovered from phage library selection on this NCI-60 cell line)
LGAGEGD		SNB-75 CNS		
WSSTASL	H460-Lung			
GGRRGTS				MCF-7 Breast
IGLRGEN		SNB-75 CNS		
GTGAAVF				RXF393 Renal
DRQLAGR				HS 578 T Breast
AGRRFGG	EKVX-Lung			
YLGRRVS		SW620-Colon		
QVRRGVV		HT-29 Colon		
FAGRAPR				ACHN Renal
LGGLGIH		SF-295 CNS		
GGSPGVW			SK-MEL-5 Melanoma	
GKALRGV	Hop-62-Lung			
GATGVSS			OVCAR-8 Ovarian	
GGRPVER				UO31 Renal
WGVLQLE		LOX-IMVI Melanoma		
GLVKLRS				MCF-7 Breast
LIGGLLS			SK-MEL-5 Melanoma	
GAVTSAD			SK-MEL-2 Melanoma	
LGVRLAS				BT-549 Breast
GWVAVSC		LOX-IMVI Melanoma		
GSGSSSR				TK-10 Renal
AGVFAVS	HL-60-Leukemia			

Substance	Cell Line with which the peptide (and its tripeptide motif) is associated	Cell Line (NCI-60 cell line the peptide is associated with)	Cell Line (NCI-60 cell line the peptide and its motif are associated with)	Cell Line the peptide is associated with (peptide recovered from phage library selection on this NCI-60 cell line)
RSSYAPP				ACHN Renal
SGSGCVF			PC3 Prostate	
HGGSNDR				A498 Renal
EQLSGVR	CCRF-CEM Leukemia			
GRVTVAV	A549-Lung			
LAGRASE			OVCAR-4 Ovarian	
HLRGRGV	EKVX-Lung			
LGQCGRV	HL-60-Leukemia			
VGVMGGR				CAIK-1 Renal
GGAGSRR				UO31 Renal
LAAGGEL	RPMI-8226-Leukemia			
GSMHRVS		SF-295 CNS		
RAVWRAS			SK-MEL-2 Melanoma	
RRDGLVE			786-0 Renal	
AGGVRDL			PC3 Prostate	
RYSTLLR	K-562-Leukemia			
FVDIAGS	H23-Lung			
GAGGMAR	RPMI-8226-Leukemia			
EMGSSRG		HT-29 Colon		
HLRSGFS			DU-145 Prostate	
WGSVAGI		SNB-75 CNS		
GLRDGVE				A498 Renal
SFWWLRS				TK-10 Renal

Substance	Cell Line with which the peptide (and its tripeptide motif) is associated	Cell Line (NCI-60 cell line the peptide is associated with)	Cell Line (NCI-60 cell line the peptide and its motif are associated with)	Cell Line the peptide is associated with (peptide recovered from phage library selection on this NCI-60 cell line)
VPLRSSA		HT-29 Colon		
GVYWLRS				TK-10 Renal
VLVEGAV				TK-10 Renal
SLGSVGS	EKVX-Lung			
YGSVALR		H522-Lung		
HAPGLRV		MALME-3M Melanoma		
LSGRVIV				UO31 Renal
LPGRLRV			OVCAR-5 Ovarian	
YGVSRLL			DU-145 Prostate	
TWIGRVS		LOX-IMVI Melanoma		
FRVSLGY				ACHN Renal
GRLLAGG	Hop-92-Lung			
DRFGSSA				ACHN Renal
LRSGRGS	RPMI-8226-Leukemia			MDA-MB-435-Breast
RVRSSLA				HS 578 T Breast
GLVRGFP	SR Leukemia			
RALGAAS			SK-OV-3-3 Ovarian	
FGLRSRL	SR Leukemia			
GVGGGAG				MDA-MB-435-Breast
ERVSAAV			OVCAR-3 Ovarian	
MSAFGRL	EKVX-Lung			
IDLGRVN			SK-MEL-5 Melanoma	
NRSSGRR	SR Leukemia			

Substance	Cell Line with which the peptide (and its tripeptide motif) is associated	Cell Line (NCI-60 cell line the peptide is associated with)	Cell Line (NCI-60 cell line the peptide and its motif are associated with)	Cell Line the peptide is associated with (peptide recovered from phage library selection on this NCI-60 cell line)
GRLWGFW	H226-Lung			
GVSGTVS			IGROV1 Ovarian	
LRVPGGP		KM-12C Colon		
AGGQSER	H226-Lung			
HGGRYRH			UACC 257 Melanoma	
EGGRTHW		HT-29 Colon		
GGLKVWR			PC3 Prostate	
LEAGSQL	H226-Lung			
GEVGLGV		HT-29 Colon		
DPRGLRV	HL-60-Leukemia			
PGAVPGA		HT-29 Colon		
LLSGVIL		LOX-IMVI Melanoma		
VMLLRPE	HL-60-Leukemia			
LRVGHAG				SN12C Renal
GGSRGYR				UO31 Renal
KRAVGRM			A498 Renal	
SARLSHV			UACC 257 Melanoma	
AVSGRSL			M14 Melanoma	
LLRSSLG		HCT-116 Colon		
LAGGVPG	CCRF-CEM Leukemia			
GLVGGSS	H460-Lung			
EWHAASG			SK-MEL-2 Melanoma	
PQGRGVK		SNB-75 CNS		

Substance	Cell Line with which the peptide (and its tripeptide motif) is associated	Cell Line (NCI-60 cell line the peptide is associated with)	Cell Line (NCI-60 cell line the peptide and its motif are associated with)	Cell Line the peptide is associated with (peptide recovered from phage library selection on this NCI-60 cell line)
SITRGGL			DU-145 Prostate	
LLSTSIR	RPMI-8226-Leukemia			
FTRGGLS		SNB-75 CNS		
SMRGVLS				BT-549 Breast
PRASSTG				SN12C Renal
FTSGVSW		COLO-205-Colon		
LRSGSLG		SF-268 CNS		
GHYRASV		HT-29 Colon		
FFGGSRA	K-562-Leukemia			
GDATLVS			786-0 Renal	
GGFTGGL		SF-295 CNS		
KSGLRPA	EKVX-Lung			
TSGRLWV			M14 Melanoma	
SELRSIR		COLO-205-Colon		
AGSVYSV			OVCAR-5 Ovarian	
RVMRGSL				MCF-7 Breast
LGLSGLG				NCI/ADR-RES Breast
GGSLKWV			SK-MEL-2 Melanoma	
